From BindingDB's records for patent US20230382863 (Ikena Oncology, 2023) come the findings set out here.

Mitogen-activated protein kinase kinase kinase 1/RAF proto-oncogene serine/threonine-protein kinase, sequence (P04049 whole entry): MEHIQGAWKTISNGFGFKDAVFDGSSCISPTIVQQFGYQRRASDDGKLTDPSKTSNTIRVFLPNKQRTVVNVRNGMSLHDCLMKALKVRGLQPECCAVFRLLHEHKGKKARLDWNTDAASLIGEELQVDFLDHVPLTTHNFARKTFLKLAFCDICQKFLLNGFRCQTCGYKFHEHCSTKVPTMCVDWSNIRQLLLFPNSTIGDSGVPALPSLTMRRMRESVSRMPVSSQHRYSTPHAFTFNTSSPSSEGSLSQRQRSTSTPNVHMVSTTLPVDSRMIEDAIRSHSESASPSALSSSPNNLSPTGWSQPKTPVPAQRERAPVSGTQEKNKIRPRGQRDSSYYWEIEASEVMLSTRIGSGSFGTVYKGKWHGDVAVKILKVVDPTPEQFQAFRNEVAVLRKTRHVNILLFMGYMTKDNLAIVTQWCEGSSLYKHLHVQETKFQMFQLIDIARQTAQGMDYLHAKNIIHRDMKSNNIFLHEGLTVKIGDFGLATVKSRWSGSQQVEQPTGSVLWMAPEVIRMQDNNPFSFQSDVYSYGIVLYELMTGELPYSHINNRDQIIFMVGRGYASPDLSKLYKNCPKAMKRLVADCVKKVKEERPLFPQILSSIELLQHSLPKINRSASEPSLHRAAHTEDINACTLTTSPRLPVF
Mitogen-activated protein kinase kinase kinase 1/RAF proto-oncogene serine/threonine-protein kinase, sequence (Q13233 whole entry, further chain): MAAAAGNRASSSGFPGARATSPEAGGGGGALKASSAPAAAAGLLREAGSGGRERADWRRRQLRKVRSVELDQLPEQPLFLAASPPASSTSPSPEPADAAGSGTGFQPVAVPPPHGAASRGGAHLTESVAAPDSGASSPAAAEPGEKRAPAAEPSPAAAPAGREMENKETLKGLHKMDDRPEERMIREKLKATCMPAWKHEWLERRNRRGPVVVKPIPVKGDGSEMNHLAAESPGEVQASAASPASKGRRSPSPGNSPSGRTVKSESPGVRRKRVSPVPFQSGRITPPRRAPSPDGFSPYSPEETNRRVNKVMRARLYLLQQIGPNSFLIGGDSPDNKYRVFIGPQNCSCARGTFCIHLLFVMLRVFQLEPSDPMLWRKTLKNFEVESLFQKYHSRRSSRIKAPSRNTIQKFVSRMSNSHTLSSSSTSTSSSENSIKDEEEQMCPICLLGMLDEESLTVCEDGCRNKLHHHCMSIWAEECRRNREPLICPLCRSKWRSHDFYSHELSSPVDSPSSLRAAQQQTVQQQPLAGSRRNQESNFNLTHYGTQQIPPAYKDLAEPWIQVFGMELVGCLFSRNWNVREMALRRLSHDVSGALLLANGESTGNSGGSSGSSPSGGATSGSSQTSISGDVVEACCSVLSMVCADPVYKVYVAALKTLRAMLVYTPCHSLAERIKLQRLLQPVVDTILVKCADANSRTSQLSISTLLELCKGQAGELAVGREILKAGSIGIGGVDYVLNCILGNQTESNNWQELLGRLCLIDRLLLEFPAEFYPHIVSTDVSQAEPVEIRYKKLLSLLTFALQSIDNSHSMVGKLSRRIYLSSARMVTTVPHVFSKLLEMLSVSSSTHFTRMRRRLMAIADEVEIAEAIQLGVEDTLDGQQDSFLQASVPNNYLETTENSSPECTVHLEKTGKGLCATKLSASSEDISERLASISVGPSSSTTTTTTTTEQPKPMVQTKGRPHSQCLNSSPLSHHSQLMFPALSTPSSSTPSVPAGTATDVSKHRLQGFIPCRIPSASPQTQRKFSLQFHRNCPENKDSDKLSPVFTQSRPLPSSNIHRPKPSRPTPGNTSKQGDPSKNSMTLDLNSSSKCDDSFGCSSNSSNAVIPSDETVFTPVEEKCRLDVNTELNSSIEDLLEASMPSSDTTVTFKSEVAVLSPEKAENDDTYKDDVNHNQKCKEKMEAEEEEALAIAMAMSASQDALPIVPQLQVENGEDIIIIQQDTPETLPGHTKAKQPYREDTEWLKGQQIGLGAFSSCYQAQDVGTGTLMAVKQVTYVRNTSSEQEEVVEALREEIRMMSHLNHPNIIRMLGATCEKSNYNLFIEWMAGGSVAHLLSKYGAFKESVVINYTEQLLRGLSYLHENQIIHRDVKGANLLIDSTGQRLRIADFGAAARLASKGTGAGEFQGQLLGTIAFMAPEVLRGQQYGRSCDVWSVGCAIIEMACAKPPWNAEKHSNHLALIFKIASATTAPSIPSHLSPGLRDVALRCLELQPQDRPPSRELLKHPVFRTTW

This assay deals with Mitogen-activated protein kinase kinase kinase 1/RAF proto-oncogene serine/threonine-protein kinase (Homo sapiens, UniProt P04049+Q02750). Briefly: AlphaLISA Assay. Here is the method:
5 μL 4×MEK1 stock solution was added to wells A1-P20 by multichannel pipettes. […] 5 μL 4×CRAF stock solution at different concentrations or 5 μL or 10 μL AlphaLISA buffer was added by multichannel pipettes. The plate was sealed, centrifuged at 1000 rpm for 1 minute, and incubated at room temperature for 60 minutes. 5 μL 4×glutathione acceptor beads were first added to all wells by multichannel pipettes. The ambient light was subsequently adjusted to <100 lux (light meter) before adding 5 μL 4×nickel chelate donor beads to the same wells. From this step on, the plate was covered with a black plate cover, centrifuged at 1000 rpm for 1 minute, and incubated at room temperature for 60 minutes.
A general note: Alpha assays give light when donor and acceptor beads are brought close together.
In turn, `CNS(=O)(=O)Nc1cccc(Oc2c(C(=O)NC3CC3)c(Nc3ccc(I)cc3F)n(C)c(=O)c2C)c1OC` [US20230382863, Compound I-1] displayed a Kd of 0.42 nM. Then `CNS(=O)(=O)Nc1cccc(Oc2c(C(=O)NC3CC3)c(Nc3ccc(I)cc3F)n(C)c(=O)c2C)c1OC(F)(F)F` [US20230382863, Compound I-40], with 0.47 nM. Then `CNS(=O)(=O)Nc1cccc(Oc2c(C(=O)NC(C)C)c(Nc3ccc(I)cc3F)n(C)c(=O)c2C)c1Cl` [US20230382863, Compound I-41], with 0.48 nM; and `Cc1c(Oc2cccc(NS(=O)(=O)NC3CC3)c2Cl)c(C(=O)NC2CC2)c(Nc2ccc(I)cc2F)n(C)c1=O` [US20230382863, Compound I-42], with 0.57 nM; and `CCNS(=O)(=O)Nc1cccc(Oc2c(C(=O)NC3CC3)c(Nc3ccc(I)cc3F)n(C)c(=O)c2C)c1Cl` [US20230382863, Compound I-43], with 0.51 nM.

With `CNS(=O)(=O)Nc1cccc(Oc2c(C(=O)NCC(F)(F)F)c(Nc3ccc(I)cc3F)n(C)c(=O)c2C)c1Cl` [US20230382863, Compound I-45], the Kd is 0.38 nM. Then `CCNC(=O)c1c(Oc2cccc(NS(=O)(=O)NC)c2Cl)c(C)c(=O)n(C)c1Nc1ccc(I)cc1F` [US20230382863, Compound I-54], with 0.35 nM. For `COCCNS(=O)(=O)Nc1cccc(Oc2c(C(=O)NC3CC3)c(Nc3ccc(I)cc3F)n(C)c(=O)c2C)c1Cl` [US20230382863, Compound I-55], the dissociation constant (Kd) came out at 0.51 nM.

For orientation: Kd means the equilibrium constant for the complex coming apart. Higher therefore signals a looser complex.
